Reference: US9981928B2, “Aryl sulfide derivatives and aryl sulfoxide derivatives as acaricides and insecticides” (BAYER CROPSCIENCE AKTIENGESELLSCHAFT, priority 2013, dated 2018)
Where two headings read alike, the source gives them in different places.

Key:
[1] = system: greenhouse red spider mite (Tetranychus urticae); assay: Tetranychus urticae spray test, OP-resistant (TETRUR), bean leaf disks; assay type: in vivo; conditions: bean leaf disks, application rate 500 g/ha, after 6 days; for pest or weed control at 500 g/ha: Tetranychus urticae, foliar, 144 h, read-out: efficacy in %
Procedure, shortened: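 Efficacy (% mites killed) read 6 days after spraying infested Phaseolus vulgaris leaf disks. Compound preparation: acetone and dimethylformamide solvent, made up in water with 1000 ppm alkylaryl polyglycol ether emulsifier; OP-resistant mite strain, all life stages.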

[2] = log P determination by HPLC on reversed-phase columns (C 18), analogously to OECD Guideline 117; assay type: physicochemical; conditions: for logP (HCOOH): LC-MS in the acidic range, pH 2.7, 0.1% aqueous formic acid / acetonitrile; for logP (HCOOH) / logP (neutral): HPLC reversed-phase C 18; for logP (neutral): LC-MS in the neutral range, pH 7.8, 0.001 molar aqueous ammonium hydrogencarbonate / acetonitrile; for chromatographic logP: reversed-phase C18 HPLC column
Procedure, shortened: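 Reversed-phase C18 HPLC per OECD 117 with LC-MS detection and a linear 10→95% acetonitrile gradient. Acidic log P run at pH 2.7 with 0.1% formic acid in both eluents. Neutral log P run at pH 7.8 with 0.001 M aqueous ammonium hydrogencarbonate.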

[3] = system: larvae of the mustard beetle (Phaedon cochleariae); assay: Phaedon cochleariae spray test (PHAECO); assay type: in vivo; conditions: Chinese cabbage leaf disks; application rate 500 g/ha; after 7 days
Method: Phaedon cochleariae—Spray Test (PHAECO)
(§1) Solvent: 78.0 parts by weight of acetone
(§2) • 1.5 parts by weight of dimethylformamide Emulsifier: alkylaryl polyglycol ether
(§3) To produce a suitable preparation of active compound, 1 part by weight of active compound is dissolved using the stated parts by weight of solvent and made up with water containing an emulsifier concentration of 1000 ppm until the desired concentration is attained. To produce further test concentrations, the preparation is diluted with emulsifier-containing water.
After 7 days, the efficacy in % is determined. 100% means that all the beetle larvae have been killed; 0% means that no beetle larvae have been killed.

[4] = system: southern root-knot nematode (Meloidogyne incognita); assay: Meloidogyne incognita test (MELGIN); assay type: in vivo; conditions: lettuce in sand; application rate 20 ppm; after 14 days
Method: Meloidogvne incognita test (MELGIN)
Solvent: 125.0 parts by weight of acetone
To produce a suitable preparation of active compound, 1 part by weight of active compound is mixed with the stated amount of solvent and the concentrate is diluted with water to the desired concentration.
Vessels are filled with sand, active compound solution, an egg/larvae suspension of the southern root-knot nematode (Meloidogyne incognita) and lettuce seeds. The lettuce seeds germinate and the plants develop. The galls develop on the roots.
After 14 days, the nematicidal efficacy in % is determined by the formation of galls. 100% means that no galls were found; 0% means that the number of galls on the treated plants corresponds to the untreated control.

[5] = system: caterpillars of the armyworm (Spodoptera frugiperda); assay: Spodoptera frugiperda spray test (SPODFR); assay type: in vivo; conditions: maize leaf disks; application rate 500 g/ha; after 7 days
Method: Spodoptera frugiperda—Spray Test (SPODFR)
as §1, §2, §3
Leaf disks of maize (Zea mays) are sprayed with an active compound preparation of the desired concentration and, after drying, populated with caterpillars of the armyworm (Spodoptera frugiperda).
After 7 days, the efficacy in % is determined. 100% means that all the caterpillars have been killed; 0% means that no caterpillars have been killed.

[6] = system: cattle ticks (Boophilus microplus) Parkhurst strain, SP-resistant; assay: Boophilus microplus dip test (BOOPMI Dip); assay type: in vivo; conditions: engorged adult female ticks dipped; application rate 100 ppm; assessed after 7 days
Method: Boophilus microplus—Dip Test (BOOPMI Dip)
Test animals: cattle ticks (Boophilus microplus) Parkhurst strain, SP-resistant
(§4) Solvent: dimethyl sulfoxide
10 mg of active compound are dissolved in 0.5 ml of dimethyl sulfoxide. To produce a suitable formulation, the active compound solution is diluted with water to the concentration desired in each case.
This active compound preparation is pipetted into tubes. 8-10 engorged adult female cattle ticks (Boophilus microplus) are transferred into a further tube with holes. The tube is immersed into the active compound preparation, and all the ticks are completely wetted. After the liquid has run out, the ticks are transferred on filter disks into plastic dishes and stored in a climate-controlled room.
(§5) Efficacy is assessed after 7 days by laying of fertile eggs. Eggs which are not visibly fertile are stored in a climate-controlled cabinet until the larvae hatch after about 42 days. An efficacy of 100% means that none of the ticks has laid any fertile eggs; 0% means that all the eggs are fertile.

[7] = system: green peach aphid (Myzus persicae); assay: Myzus persicae spray test (MYZUPE); assay type: in vivo; conditions: Chinese cabbage leaf disks; application rate 500 g/ha; after 6 days
Method: Myzus persicae—Spray Test (MYZUPE)
Solvent: 78 parts by weight of acetone
as §2, §3
Disks of Chinese cabbage leaves (Brassica pekinensis) infested by all stages of the green peach aphid (Myzus persicae) are sprayed with an active compound preparation of the desired concentration.
After 6 days, the efficacy in % is determined. 100% means that all the aphids have been killed; 0% means that none of the aphids have been killed.

[8] = system: cattle ticks (Boophilus microplus); assay: Boophilus microplus injection test (BOOPMI inj); assay type: in vivo; conditions: injection into the abdomen; application rate 20 μg/animal; assessed after 7 days
Method: Boophilus microplus—Injection Test (BOOPMI inj)
as §4
To produce a suitable preparation of active compound, 10 mg of active compound are mixed with 0.5 ml of solvent and the concentrate is diluted with solvent to the desired concentration.
1 μl of the active compound solution is injected into the abdomen of 5 engorged adult female cattle ticks (Boophilus microplus). The animals are transferred into dishes and kept in a climate-controlled room.
as §5

Amblyomma hebraeum = Amblyomma hebraeum test (AMBYHE), tick nymph immersion; assay type: in vivo; conditions: tick nymphs immersed for one minute; application rate 100 ppm; after 42 days
Method: Amblyomma hebaraeum Test (AMBYHE)
as §4
To produce a suitable preparation of active compound, 10 mg of active compound are mixed with 0.5 ml of dimethyl sulfoxide, and the concentrate is diluted with water to the desired concentration.
Tick nymphs (Amblyomma hebraeum) are placed into perforated plastic beakers and immersed in the desired concentration for one minute. The ticks are transferred on filter paper into a Petri dish and stored in a climate-controlled cabinet.
After 42 days, the kill in % is determined. 100% means that all of the ticks have been killed; 0% means that none of the ticks have been killed.

[9] = acidic range, pH 2.7, 0.1% aqueous formic acid and acetonitrile, read-out: log P[a] / log P(HCOOH)
[10] = neutral range, pH 7.8, 0.001 molar aqueous ammonium hydrogencarbonate and acetonitrile, read-out: log P[b] / log P(neutral)

| Structure (SMILES) | efficacy in % [1] | logP (HCOOH) [2] | logP (neutral) [2] | efficacy in % [3] | nematicidal efficacy in % (formation of galls) [4] | efficacy (laying of fertile eggs) [8] | other results |
| --- | --- | --- | --- | --- | --- | --- | --- |
| Cc1ccc(-n2c(=O)n(C)c(=O)n2CC2CC2)cc1SCC(F)(F)F [Example 52] | 100% | 3.34 | 3.29 | 100% | 100% | – | – |
| Cc1ccc(-n2c(=O)n(C)c(=O)n2Cc2ccccc2Cl)cc1SCC(F)(F)F [Example 60] | – | 3.80 | 3.75 | 83% | – | – | – |
| Cc1cc(F)c(N2C(=O)CN(C)C2=O)cc1SCC(F)(F)F [Example 200] | 90% | 2.42 | 2.33 | 100% | – | – | efficacy in % [5]: 100% |
| Cc1cc(F)c(N2C(=O)C(=O)N(C3CCCCC3)C2=O)cc1[S+]([O-])CC(F)(F)F (stereo not shown) [Example 186, 1-Cyclohexyl-3-{2-fluoro-4-methyl-5-[(2,2,2-trifluoroethyl)sulfinyl]phenyl}imidazolidin-2,4,5-trion] | – | – | – | 100% | – | – | pest or weed control at 500 g/ha [1]: 100%; chromatographic logP [2, 9]: 3.36; chromatographic logP [2, 10]: 3.33 |
| Cc1cc(F)c(N2CCN(C)C2=O)cc1SCC(F)(F)F [Example 198] | 100% | 2.79 | 2.75 | 83% | – | – | – |
| Cc1cc(F)c(N2C(=O)C(=O)N(CC(F)(F)F)C2=S)cc1[S+]([O-])CC(F)(F)F (stereo not shown) [Example 190] | 90% | 3.03 | – | 100% | – | – | – |
| Cc1cc(F)c(-n2[nH]c(=O)n(C3CC3)c2=O)cc1SCC(F)(F)F [Example 207] | 90% | 1.57 | −0.23 | – | – | – | efficacy in % [5]: 83% |
| Cc1ccc(-n2c(=O)n(C(C)C)c(=O)n2C)cc1[S+]([O-])CC(F)(F)F (stereo not shown) [Example 141] | 90% | 2.27 | 2.24 | – | – | 100% | efficacy (laying of fertile eggs) [6]: 90%; efficacy in % [7]: 100% |
| Cc1cc(F)c(-n2[nH]c(=O)n(-c3cccc(Cl)c3)c2=O)cc1SCC(F)(F)F [Example 157] | – | 3.31 | 1.33 | – | – | – | efficacy in % [5]: 100% |
| Cc1cc(F)c(N2CC(=O)N(C3CC3)C2=O)cc1SCC(F)(F)F [Example 210] | 100% | 2.91 | – | – | 90% | 100% | – |
| Cc1cc(F)c(-n2c(=O)n(C(C)C)c(=O)n2C)cc1SCC(F)(F)F [Example 91] | 100% | 3.35 | 3.28 | – | – | 100% | efficacy (laying of fertile eggs) [6]: 100%; kill in % (Amblyomma hebraeum): 100% |
| Cc1cc(F)c(N2CC(=O)N(C)C2=O)cc1SCC(F)(F)F [Example 211] | 100% | 2.66 | – | 83% | – | 100% | – |
| Cn1c(=O)n(C2CC2)c(=O)n1-c1ccc(C(F)(F)F)c([S+]([O-])CC(F)(F)F)c1 (stereo not shown) [Example 54] | 100% | 2.63 | 2.58 | – | 90% | 100% | – |
| Cc1cc(F)c(-n2c(=O)n(C3CC3)c(=O)n2C)cc1SCC(F)(F)F [Example 35] | 100% | 2.83 | 2.81 | – | 100% | 100% | – |
| Cc1cc(F)c(N2C(=O)OC(C)C2=O)cc1[S+]([O-])CC(F)(F)F (stereo not shown) [Example 206] | – | 2.08 | – | – | – | – | efficacy in % [7]: 100% |
| Cc1ccc(-n2c(=O)n(C)c(=O)n2Cc2ccccc2)cc1SCC(F)(F)F [Example 57] | – | 3.62 | 3.56 | 100% | – | – | – |
| Cc1cc(F)c(N2C(=O)CSC2=NCC(F)(F)F)cc1[S+]([O-])CC(F)(F)F (stereo not shown) [Example 13, 3-{2-Fluoro-4-methyl-5-[(2,2,2-trifluoroethyl)sulfinyl]phenyl}-2-[(2,2,2-trifluoroethyl)imino]-1,3-thiazolidin-4-one] | – | – | – | – | 90% | 100% | pest or weed control at 500 g/ha [1]: 90%; chromatographic logP [2, 9]: 2.7; chromatographic logP [2, 10]: 2.64 |
| Cc1cc(F)c(N2C(=O)C(=O)N(C3CCCCC3)C2=O)cc1SCC(F)(F)F [Example 185, 1-Cyclohexyl-3-{2-fluoro-4-methyl-5-[(2,2,2-trifluoroethyl)sulfanyl]phenyl}imidazolidine-2,4,5-trione] | – | – | – | 100% | – | – | pest or weed control at 500 g/ha [1]: 90%; chromatographic logP [2, 9]: 4.32; chromatographic logP [2, 10]: 4.27 |
| Cc1cc(F)c(N2CC(=O)N(C3CC3)C2=O)cc1[S+]([O-])CC(F)(F)F (stereo not shown) [Example 209] | 100% | 1.92 | – | – | 90% | 100% | – |
| Cc1ccc(-n2c(=O)n(C)c(=O)n2-c2ccc(C)c([S+]([O-])CC(F)(F)F)c2)cc1SCC(F)(F)F (stereo not shown) [Example 84] | – | 3.46 | 3.38 | 100% | – | – | – |
